Legend:
[1] = target: T1, HEK-293 cells transfected with dox-inducible human wild type FGFR3 (Homo sapiens (Human), UniProt P22607); test: FGFR3 pFGFR cell assay (ELISA); type: cell-based; conditions: HEK-293 dox-inducible FGFR3, 1 hour compound, 100 ng/ml FGF-acidic
How it was run: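 Doxycycline-induced (1 μg/ml) HEK-293 cells expressing wild-type human FGFR3, treated 1 h with compound (1:3 series, top final 5 μM), then stimulated 5 min with 100 ng/ml FGF-acidic. Phospho-FGFR3 measured by ELISA (total FGFR3 capture, phosphotyrosine detection, OD 450 nm); IC50 from 4-parameter fit of POC values.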

[2] = target: FGFR3 (SEQ ID NO: 5, amino acids 449-759) (Homo sapiens (Human), UniProt P22607); test: LC/MS FGFR3 kobs assay (covalent protein modification); type: binding; conditions: 500 nM FGFR3, 3 μM compound
Sequence of FGFR3 (SEQ ID NO: 5, amino acids 449-759) (P22607 449-759): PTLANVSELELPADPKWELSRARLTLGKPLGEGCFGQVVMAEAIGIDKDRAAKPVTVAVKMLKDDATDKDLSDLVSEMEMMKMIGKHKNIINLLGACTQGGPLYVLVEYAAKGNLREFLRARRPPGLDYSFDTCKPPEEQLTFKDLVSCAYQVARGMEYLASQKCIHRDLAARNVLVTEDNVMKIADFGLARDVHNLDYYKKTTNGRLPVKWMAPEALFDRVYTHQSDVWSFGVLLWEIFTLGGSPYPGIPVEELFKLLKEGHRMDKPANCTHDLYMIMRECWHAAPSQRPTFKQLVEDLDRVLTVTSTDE
How it was run: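 Timed reactions were stopped with 0.4% formic acid, and covalent adduct formation was measured by LC/MS on a Q-TOF with deconvolution of protein masses. Modified signal was normalized to DMSO-control unmodified protein at each time point; percent unmodified protein was fit to exponential decay to give kobs.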

[3] = target: FGFR1 (SEQ ID NO: 1, amino acids 458-765) (Homo sapiens (Human), UniProt P11362); test: LC/MS FGFR1 kobs assay (covalent protein modification); type: binding; conditions: 500 nM FGFR1, 3 μM compound
Sequence of FGFR1 (SEQ ID NO: 1, amino acids 458-765) (P11362 458-765): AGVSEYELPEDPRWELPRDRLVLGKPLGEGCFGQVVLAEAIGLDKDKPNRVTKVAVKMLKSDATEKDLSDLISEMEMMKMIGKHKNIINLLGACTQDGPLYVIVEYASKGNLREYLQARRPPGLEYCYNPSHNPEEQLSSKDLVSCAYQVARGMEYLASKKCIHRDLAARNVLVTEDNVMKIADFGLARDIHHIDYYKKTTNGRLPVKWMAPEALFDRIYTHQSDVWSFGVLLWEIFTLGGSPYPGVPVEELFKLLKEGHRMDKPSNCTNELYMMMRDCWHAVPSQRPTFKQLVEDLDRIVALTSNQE
How it was run: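 Covalent labeling of FGFR1 kinase domain (aa 458-765) tracked over time by intact-protein LC/MS after formic acid quench. kobs derived by fitting DMSO-normalized percent unmodified FGFR1 to an exponential decay model.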

[4] = target: T1, HEK-293 cells transfected with dox-inducible human wild type FGFR3; test: FGFR3 pERK cell assay; type: cell-based; conditions: HEK-293 dox-inducible FGFR3, 1 hour compound, 100 ng/ml FGF-acidic; maximum concentration 5 μM
How it was run: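 Doxycycline-induced cells preincubated 1 h at 37 °C with compound (1:3 dilutions, top 5 μM final), then stimulated 5 min with 100 ng/ml FGF-acidic. Lysate phospho-ERK1/2 measured by MSD sandwich assay; IC50 at 50 POC from 4-parameter fit, normalised to no-compound and control-compound wells.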

[5] = target: HEK-293 cells transfected with dox-inducible human wild type FGFR1 (Homo sapiens (Human), UniProt P11362); test: FGFR1 pERK cell assay; type: cell-based; conditions: HEK-293 dox-inducible FGFR1, 1 hour compound, 100 ng/ml FGF-acidic; maximum concentration 5 μM
Sequence of HEK-293 cells transfected with dox-inducible human wild type FGFR1 (P11362 22-822): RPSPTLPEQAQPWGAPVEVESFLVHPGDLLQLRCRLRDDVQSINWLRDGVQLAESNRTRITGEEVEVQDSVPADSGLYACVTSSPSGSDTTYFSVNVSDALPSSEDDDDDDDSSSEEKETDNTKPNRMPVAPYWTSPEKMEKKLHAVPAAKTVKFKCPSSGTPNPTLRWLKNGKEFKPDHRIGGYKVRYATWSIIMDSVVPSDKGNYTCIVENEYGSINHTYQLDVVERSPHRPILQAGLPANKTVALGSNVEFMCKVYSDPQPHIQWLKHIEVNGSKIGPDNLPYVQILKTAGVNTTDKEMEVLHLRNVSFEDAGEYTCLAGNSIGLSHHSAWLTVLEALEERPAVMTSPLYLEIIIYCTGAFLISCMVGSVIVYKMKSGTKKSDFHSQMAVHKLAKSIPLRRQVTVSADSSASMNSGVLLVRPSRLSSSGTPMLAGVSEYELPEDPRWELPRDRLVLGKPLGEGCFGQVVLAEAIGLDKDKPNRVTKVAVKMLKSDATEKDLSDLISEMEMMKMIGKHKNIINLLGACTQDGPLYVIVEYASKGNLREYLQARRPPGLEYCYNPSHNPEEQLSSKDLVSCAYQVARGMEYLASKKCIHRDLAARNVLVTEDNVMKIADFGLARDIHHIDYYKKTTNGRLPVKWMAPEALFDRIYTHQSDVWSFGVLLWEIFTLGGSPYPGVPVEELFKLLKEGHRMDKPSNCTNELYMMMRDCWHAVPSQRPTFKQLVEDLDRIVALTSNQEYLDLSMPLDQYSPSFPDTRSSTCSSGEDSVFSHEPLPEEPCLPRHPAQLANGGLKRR
How it was run: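 In HEK-293 cells with dox-induced human wild-type FGFR1, compounds (1:3 dilutions, top 5 μM final) were applied 1 h at 37°C before 5 min stimulation with 100 ng/ml FGF-acidic. Phospho-ERK1/2 measured by MSD sandwich immunoassay; IC50 from 4-parameter fit of POC versus vehicle and control compound.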

T1 sequence (P22607 23-806): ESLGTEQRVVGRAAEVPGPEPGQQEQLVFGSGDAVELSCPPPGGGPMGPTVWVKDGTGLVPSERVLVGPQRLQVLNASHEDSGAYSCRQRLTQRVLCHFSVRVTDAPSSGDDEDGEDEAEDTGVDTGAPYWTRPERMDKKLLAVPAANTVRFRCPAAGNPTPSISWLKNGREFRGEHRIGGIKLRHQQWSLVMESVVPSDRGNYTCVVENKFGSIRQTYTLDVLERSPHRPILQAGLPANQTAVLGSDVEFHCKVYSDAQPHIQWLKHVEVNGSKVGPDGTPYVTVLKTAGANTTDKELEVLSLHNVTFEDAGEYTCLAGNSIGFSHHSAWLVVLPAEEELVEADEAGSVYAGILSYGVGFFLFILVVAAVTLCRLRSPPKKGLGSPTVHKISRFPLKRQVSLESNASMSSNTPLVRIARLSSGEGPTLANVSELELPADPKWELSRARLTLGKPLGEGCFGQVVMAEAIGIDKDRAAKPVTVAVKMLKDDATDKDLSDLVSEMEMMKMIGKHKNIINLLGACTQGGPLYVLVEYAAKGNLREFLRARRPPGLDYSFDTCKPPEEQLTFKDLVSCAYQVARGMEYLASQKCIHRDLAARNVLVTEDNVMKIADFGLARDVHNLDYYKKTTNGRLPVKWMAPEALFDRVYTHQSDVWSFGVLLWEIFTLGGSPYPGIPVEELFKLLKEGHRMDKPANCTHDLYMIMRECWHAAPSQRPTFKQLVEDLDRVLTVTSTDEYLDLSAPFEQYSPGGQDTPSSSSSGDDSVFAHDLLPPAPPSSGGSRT

SMILES | IC50 [1] [nM] | FGFR3 Enz kobs [2] [min⁻¹] | FGFR1 Enz kobs [3] [min⁻¹] | IC50 [4] [nM] | IC50 [5] [nM]
C=CC(=O)N1CCC(C#N)(C(=O)N2CCC(n3cc(-c4cc(OC)c5c(C#N)cnn5c4)cn3)CC2)CC1 [Example 14, 6-(1-(1-(1-acryloyl-4-cyanopiperidine-4-carbonyl)piperidin-4-yl)-1H-pyrazol-4-yl)-4-methoxypyrazolo[1,5-a]pyridine-3-carbonitrile] | 25 | 0.00997 | 0.00069 |  | 
C=CC(=O)N1CCC(C(=O)N2CCC(n3cc(-c4cc(OC)c5c(C#N)cnn5c4)cn3)CC2)C(F)(F)C1 (centres unmarked) [Example 15, 6-(1-(1-(1-acryloyl-3,3-difluoropiperidine-4-carbonyl)piperidin-4-yl)-1H-pyrazol-4-yl)-4-methoxypyrazolo[1,5-a]pyridine-3-carbonitrile] | 10 | 0.01716 | 0.00168 |  | 
C=CC(=O)N1CC2(CCC(C(=O)N3CCC(n4cc(-c5cc(OC)c6c(C#N)cnn6c5)cn4)CC3)CC2)C1 [Example 21, 6-(1-(1-(2-acryloyl-2-azaspiro[3.5]nonane-7-carbonyl)piperidin-4-yl)-1H-pyrazol-4-yl)-4-methoxypyrazolo[1,5-a]pyridine-3-carbonitrile] | 40 | 0.00661 | 0.00085 |  | 
C=CC(=O)Nc1cccc(C(=O)N2CCC(n3cc(-c4cc(OC)c5c(C#N)cnn5c4)cn3)CC2)c1 [Example 22, N-(3-(4-(4-(3-cyano-4-methoxypyrazolo[1,5-a]pyridin-6-yl)-1H-pyrazol-1-yl)piperidine-1-carbonyl)phenyl)acrylamide] | 87 | 0.0108 | 0.00187 |  | 
C=CC(=O)Nc1ccc(C(=O)N2CCC[C@@H](n3cc(-c4cc(OC)c5c(C#N)cnn5c4)cn3)C2)cc1 [Example 23, (R)-N-(4-(3-(4-(3-cyano-4-methoxypyrazolo[1,5-a]pyridin-6-yl)-1H-pyrazol-1-yl)piperidine-1-carbonyl)phenyl)acrylamide] | 90 | 0.01176 | 0.00247 |  | 
C=CC(=O)Nc1cccc(C(=O)N2CCC[C@@H](n3cc(-c4cc(OC)c5c(C#N)cnn5c4)cn3)C2)c1 [Example 24, (R)-N-(3-(3-(4-(3-cyano-4-methoxypyrazolo[1,5-a]pyridin-6-yl)-1H-pyrazol-1-yl)piperidine-1-carbonyl)phenyl)acrylamide] | 435 | 0.00708 | 0.0025 |  | 
C=CC(=O)Nc1ccccc1C(=O)N1CCC[C@@H](n2cc(-c3cc(OC)c4c(C#N)cnn4c3)cn2)C1 [Example 25, (R)-N-(2-(3-(4-(3-cyano-4-methoxypyrazolo[1,5-a]pyridin-6-yl)-1H-pyrazol-1-yl)piperidine-1-carbonyl)phenyl)acrylamide] | 83 | 0.00672 | 0.00103 |  | 
C=CC(=O)N1CC[C@H](C(=O)N2CCC(n3cc(-c4cc(OC)c5c(C#N)cnn5c4)cn3)CC2)C1 [Example 28, (S)-6-(1-(1-(1-acryloylpyrrolidine-3-carbonyl)piperidin-4-yl)-1H-pyrazol-4-yl)-4-methoxypyrazolo[1,5-a]pyridine-3-carbonitrile] | 285 | 0.00294 | 0.00075 |  | 
C=CC(=O)N1CC[C@@H](C(=O)N2CCC(n3cc(-c4cc(OC)c5c(C#N)cnn5c4)cn3)CC2)C1 [Example 29, (R)-6-(1-(1-(1-acryloylpyrrolidine-3-carbonyl)piperidin-4-yl)-1H-pyrazol-4-yl)-4-methoxypyrazolo[1,5-a]pyridine-3-carbonitrile] | 359 | 0.00297 | 0.00075 |  | 
C=CC(=O)N1CCC(F)(C(=O)N2CCC(n3cc(-c4cc(OC)c5c(C#N)cnn5c4)cn3)CC2)C1 (centres unmarked) [Example 30, 6-(1-(1-(1-acryloyl-3-fluoropyrrolidine-3-carbonyl)piperidin-4-yl)-1H-pyrazol-4-yl)-4-methoxypyrazolo[1,5-a]pyridine-3-carbonitrile] | 23 | 0.01214 | 0.00104 |  | 
C=CC(=O)N1CC(C)(C(=O)N2CCC(n3cc(-c4cc(OC)c5c(C#N)cnn5c4)cn3)CC2)C1 [Example 38, 6-(1-(1-(1-acryloyl-3-methylazetidine-3-carbonyl)piperidin-4-yl)-1H-pyrazol-4-yl)-4-methoxypyrazolo[1,5-a]pyridine-3-carbonitrile] | 9 | 0.01168 | 0.00134 |  | 
C=CC(=O)N1CC(CC)(C(=O)N2CCC(n3cc(-c4cc(OC)c5c(C#N)cnn5c4)cn3)CC2)C1 [Example 40, 6-(1-(1-(1-acryloyl-3-ethylazetidine-3-carbonyl)piperidin-4-yl)-1H-pyrazol-4-yl)-4-methoxypyrazolo[1,5-a]pyridine-3-carbonitrile] | 16 | 0.01133 | 0.00138 |  | 
C=CC(=O)Nc1cccc(C(=O)N2CC[C@@H](n3cc(-c4cc(OC)c5c(C#N)cnn5c4)cn3)C2)c1 [Example 56, (R)-N-(3-(3-(4-(3-cyano-4-methoxypyrazolo[1,5-a]pyridin-6-yl)-1H-pyrazol-1-yl)pyrrolidine-1-carbonyl)phenyl)acrylamide] | 182 | 0.01264 | 0.00181 |  | 
C=CC(=O)N1CC(C(=O)N2CC[C@@H](n3cc(-c4cc(OC)c5c(C#N)cnn5c4)cn3)C2)C1 [Example 59, (R)-6-(1-(1-(1-acryloylazetidine-3-carbonyl)pyrrolidin-3-yl)-1H-pyrazol-4-yl)-4-methoxypyrazolo[1,5-a]pyridine-3-carbonitrile] | 667 | 0.00665 | 0.00106 |  | 
C=CC(=O)Nc1ccc(C(=O)N2CC[C@H](n3cc(-c4cc(OC)c5c(C#N)cnn5c4)cn3)C2)cc1 [Example 66, (S)-N-(4-(3-(4-(3-cyano-4-methoxypyrazolo[1,5-a]pyridin-6-yl)-1H-pyrazol-1-yl)pyrrolidine-1-carbonyl)phenyl)acrylamide] | 82 | 0.0223 | 0.00332 |  | 
C=CC(=O)Nc1ccc(C(=O)N2CC[C@H](n3cc(-c4cc(OC)c5c(C#N)cnn5c4)cn3)C2)c(C)c1 [Example 68, (S)-N-(4-(3-(4-(3-cyano-4-methoxypyrazolo[1,5-a]pyridin-6-yl)-1H-pyrazol-1-yl)pyrrolidine-1-carbonyl)-3-methylphenyl)acrylamide] | 187 | 0.0095 | 0.00181 |  | 
C=CC(=O)Nc1ccc(C(=O)N2CC[C@H](n3cc(-c4cc(OC)c5c(C#N)cnn5c4)cn3)C2)c(OC)c1 [Example 69, (S)-N-(4-(3-(4-(3-cyano-4-methoxypyrazolo[1,5-a]pyridin-6-yl)-1H-pyrazol-1-yl)pyrrolidine-1-carbonyl)-3-methoxyphenyl)acrylamide] | 311 | 0.01649 | 0.00422 |  | 
C=CC(=O)Nc1ccc(C(=O)N2CC[C@H](n3cc(-c4cc(OC)c5c(C#N)cnn5c4)cn3)C2)cc1C [Example 70, (S)-N-(4-(3-(4-(3-cyano-4-methoxypyrazolo[1,5-a]pyridin-6-yl)-1H-pyrazol-1-yl)pyrrolidine-1-carbonyl)-2-methylphenyl)acrylamide] | 104 | 0.0114 | 0.00278 |  | 
C=CC(=O)N1CC(CN2CC(n3ncc(-c4cc(OC)c5c(C#N)cnn5c4)c3C)C2)C1 [Example 92] |  | 0.00836 | 0.00191 | 205 | 2530
C=CC(=O)N1CC(C)(CN2CC(n3ncc(-c4cc(OC)c5c(C#N)cnn5c4)c3C)C2)C1 [Example 93, 6-(1-(1-((1-acryloyl-3-methylazetidin-3-yl)methyl)azetidin-3-yl)-5-methyl-1H-pyrazol-4-yl)-4-methoxypyrazolo[1,5-a]pyridine-3-carbonitrile] |  | 0.00896 | 0.0012 | 174 | 1910

— US12180207B2 (ARRAY BIOPHARMA INC., priority 2018, dated 2024)
